Reference: patent US11066369B2, “N-(pyridin-2-yl)pyridine-sulfonamide derivatives and their use in the treatment of disease” (Novartis AG, priority 2016, dated 2021)
Structures can show the parent of a compound that is named as a salt.

What was measured:
[1] = molecular target: T1, horseradish peroxidase (HRP) tagged delF508-CFTR (Homo sapiens, UniProt P13569, DEL508-508); test: Measurement of delF508-CFTR-HRP surface expression in CFBE41o- cells; type: cell-based; conditions: delF508-CFTR-HRP surface expression, CFBE41o- cells; for Emax: read-out: DelF508-CFTR-HRP Amax %; for EC50: read-out: DelF508-CFTR-HRP EC50;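 as to DelF508-CFTR-HRP Amax %: percent efficacy relative to reference corrector lumacaftor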
T1 construct: expressed in transfected cells
Method in brief: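 CFBE41o- bronchial epithelial cells stably expressing delF508-CFTR with HRP in the fourth extracellular loop; expression induced 48h with 500 ng/mL doxycycline, then compounds added (top 10 μM, 10-point 3-fold series, ≤0.5% DMSO) for 24h at 37° C. Surface HRP measured by luminescence with cell-impermeant substrate; EC50 from logistic fit of triplicates, plate-normalized to lowest concentration; efficacy also relative to a reference corrector.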

delF508-CFTR = molecular target: T2, delF508-CFTR (Homo sapiens, UniProt P13569, DEL508-508); test: Measurement of delF508-CFTR functional activity in primary human bronchial epithelial cells (HBECs) using Multi-Transepithelial Clamp Circuit (MTECC-24) assay; type: cell-based; conditions: primary CF HBECs; for MTECC24 CFHBEC- Amax %: test compound added 24h before assay plus potentiator, relative to reference combination (2 μM corrector + 0.5 μM potentiator); for EC50: test compound added 24h before assay, in the presence of potentiator, mean of at least two replicates, read-out: MTECC24 CFHBEC- EC50
T2 construct: functional activity of the CFTR channel (Chloride ion transport) in patient derived primary human bronchial epithelial cells; host or cells: patient-derived primary human bronchial epithelial cells (delF508-CFTR)
Method in brief: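 Patient-derived primary delF508-CFTR HBECs, differentiated at air-liquid interface ~2 weeks, treated basolaterally with compound for 24 h, then apical and basolateral compound in HEPES pH 7.4 assay medium. Equivalent short-circuit current (Ieq) recorded on MTECC-24 with sequential amiloride, forskolin, potentiator and INH-172; normalized to 0.1% DMSO, EC50 from curve fit.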

T2 sequence (P13569 with tags, fused parts or gaps DEL508-508): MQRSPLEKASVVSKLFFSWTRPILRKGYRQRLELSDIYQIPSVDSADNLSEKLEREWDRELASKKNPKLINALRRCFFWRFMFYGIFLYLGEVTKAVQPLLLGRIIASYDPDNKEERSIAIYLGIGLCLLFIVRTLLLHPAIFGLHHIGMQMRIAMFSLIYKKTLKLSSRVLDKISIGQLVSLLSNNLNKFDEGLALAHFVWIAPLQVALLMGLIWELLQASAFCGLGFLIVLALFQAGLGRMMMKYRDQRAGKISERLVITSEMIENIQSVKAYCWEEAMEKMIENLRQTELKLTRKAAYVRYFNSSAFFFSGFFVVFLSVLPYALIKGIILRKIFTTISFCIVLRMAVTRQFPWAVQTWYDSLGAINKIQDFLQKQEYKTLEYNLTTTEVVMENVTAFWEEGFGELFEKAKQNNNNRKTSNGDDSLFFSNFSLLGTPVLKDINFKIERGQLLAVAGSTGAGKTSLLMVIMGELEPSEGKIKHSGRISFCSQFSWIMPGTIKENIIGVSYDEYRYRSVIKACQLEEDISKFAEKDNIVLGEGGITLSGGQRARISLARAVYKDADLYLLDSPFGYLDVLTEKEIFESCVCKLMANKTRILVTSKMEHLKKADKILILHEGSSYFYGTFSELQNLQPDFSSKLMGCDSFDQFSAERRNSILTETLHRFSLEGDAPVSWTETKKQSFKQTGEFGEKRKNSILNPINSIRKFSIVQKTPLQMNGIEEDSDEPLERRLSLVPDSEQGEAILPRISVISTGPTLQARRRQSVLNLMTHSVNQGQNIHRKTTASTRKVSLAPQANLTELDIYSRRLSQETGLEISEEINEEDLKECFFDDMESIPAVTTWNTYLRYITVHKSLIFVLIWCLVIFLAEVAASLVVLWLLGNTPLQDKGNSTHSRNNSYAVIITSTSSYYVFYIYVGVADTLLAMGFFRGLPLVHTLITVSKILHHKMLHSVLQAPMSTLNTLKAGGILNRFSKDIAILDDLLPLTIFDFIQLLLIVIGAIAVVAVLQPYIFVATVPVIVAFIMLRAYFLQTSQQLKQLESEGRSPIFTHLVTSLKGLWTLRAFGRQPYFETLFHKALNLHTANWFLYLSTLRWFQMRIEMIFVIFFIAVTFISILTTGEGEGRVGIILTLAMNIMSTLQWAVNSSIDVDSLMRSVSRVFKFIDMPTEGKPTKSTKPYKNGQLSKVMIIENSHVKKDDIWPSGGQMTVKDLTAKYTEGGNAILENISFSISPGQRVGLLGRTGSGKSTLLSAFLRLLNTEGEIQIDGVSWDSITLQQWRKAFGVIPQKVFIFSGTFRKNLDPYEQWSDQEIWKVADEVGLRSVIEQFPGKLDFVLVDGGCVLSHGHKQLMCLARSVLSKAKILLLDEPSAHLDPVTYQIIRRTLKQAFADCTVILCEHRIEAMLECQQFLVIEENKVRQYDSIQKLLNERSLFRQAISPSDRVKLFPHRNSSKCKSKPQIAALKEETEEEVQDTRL
T1 sequence (P13569 with tags, fused parts or gaps DEL508-508): as above

Row | SMILES | Emax [1] | EC50 [1] | MTECC24 CFHBEC- Amax % (delF508-CFTR) | EC50 (delF508-CFTR)
1 | Cc1ccc(C(F)(F)F)cc1-c1nc(NS(=O)(=O)c2cccc(N3CCNCC3)n2)ccc1Cl [Example 169, N-(5-chloro-6-(2-methyl-5-(trifluoromethyl)phenyl)pyridin-2-yl)-6-(piperazin-1-yl)pyridine-2-sulfonamide Hydrochloride] | 182% | 4000 nM | 40.5% | 144 nM
2 | Cc1c(F)cccc1-c1nc(NS(=O)(=O)c2cccc(N3CCNCC3)n2)ccc1C(F)(F)F [Example 151, N-(6-(3-Fluoro-2-Methylphenyl)-5-(Trifluoromethyl)Pyridin-2-yl)-6-(Piperazin-1-yl)Pyridine-2-Sulfonamide Hydrochloride] | 187% | 3690 nM | 75.3% | 95.6 nM
3 | CCc1ccccc1-c1nc(NS(=O)(=O)c2ccnc(N3CCC(C)(C(=O)O)CC3)c2)ccc1C(F)(F)F [Example 374, 1-(4-(N-(6-(2-ethylphenyl)-5-(trifluoromethyl)pyridin-2-yl)sulfamoyl)pyridin-2-yl)-4-methylpiperidine-4-carboxylic Acid] | 233% | 2780 nM | 39.8% | 133 nM
4 | Cc1ccc(C(F)(F)F)cc1-c1nc(NS(=O)(=O)c2cccc(N3CC(O)C3)n2)ccc1Cl [Example 223, N-(5-chloro-6-(2-methyl-5-(trifluoromethyl)phenyl)pyridin-2-yl)-6-(3-hydroxyazetidin-1-yl)pyridine-2-sulfonamide] | 427% | 1920 nM | 59.9% | 14.4 nM
5 | Cc1ccccc1-c1nc(NS(=O)(=O)c2cccc(N3CC[C@@H](N)C3)n2)ccc1C(F)(F)F [Example 119, (R)-6-(3-aminopyrrolidin-1-yl)-N-(6-(o-tolyl)-5-(trifluoromethyl)pyridin-2-yl)pyridine-2-sulfonamide Hydrochloride] | 411% | 1830 nM | 70.2% | 55.3 nM
6 | Cc1c(F)cccc1-c1nc(NS(=O)(=O)c2cccc(N3CCN(C4CC4)CC3)n2)ccc1Cl [Example 141, N-(5-chloro-6-(3-fluoro-2-methylphenyl)pyridin-2-yl)-6-(4-cyclopropylpiperazin-1-yl)pyridine-2-sulfonamide] | 938% | 2020 nM | 88.7% | 8.6 nM
7 | Cc1ccc(F)cc1-c1nc(NS(=O)(=O)c2cccc(N[C@@H]3COC[C@H]3O)n2)ccc1Cl [Example 127, N-(5-chloro-6-(5-fluoro-2-methylphenyl)pyridin-2-yl)-6-(((3R,4S)-4-hydroxytetrahydrofuran-3-yl)amino)pyridine-2-sulfonamide] | 382% | 2320 nM | 45.4% | 15.7 nM
8 | Cc1c(F)cccc1-c1nc(NS(=O)(=O)c2cccc(N3CCN(C(C)(C)C)CC3)n2)ccc1Cl [Example 140, 6-(4-(tert-butyl)piperazin-1-yl)-N-(5-chloro-6-(3-fluoro-2-methylphenyl)pyridin-2-yl)pyridine-2-sulfonamide] | 395% | 3480 nM | 65.3% | 29.5 nM
9 | Cc1c(F)cccc1-c1nc(NS(=O)(=O)c2cccc(N3CCN(C(C)(C)C)CC3)n2)ccc1C(F)(F)F [Example 142, 6-(4-(tert-butyl)piperazin-1-yl)-N-(6-(3-fluoro-2-methylphenyl)-5-(trifluoromethyl)pyridin-2-yl)pyridine-2-sulfonamide] | 418% | 2630 nM | 63.7% | 5.2 nM
10 | Cc1cccc(C)c1-c1nc(NS(=O)(=O)c2cccc(N3CCN[C@@H](CO)C3)n2)ccc1C(F)(F)F [Example 172, (R)—N-(6-(2,6-dimethylphenyl)-5-(trifluoromethyl)pyridin-2-yl)-6-(3-(hydroxymethyl)piperazin-1-yl)pyridine-2-sulfonamide Hydrochloride] | 684% | 2510 nM | 77.0% | 314 nM
11 | O=S(=O)(Nc1ccc(Cl)c(-c2ccccc2Cl)n1)c1cccc(N2CC(O)C2)n1 [Example 227, N-(5-chloro-6-(2-chlorophenyl)pyridin-2-yl)-6-(3-hydroxyazetidin-1-yl)pyridine-2-sulfonamide] | 403% | 2670 nM | 104.9% | 49.1 nM
12 | Cc1cccc(C)c1-c1nc(NS(=O)(=O)c2cccc(N3CCC(C)(C(=O)O)CC3)n2)ccc1C(F)(F)F [Example 265, 1-(6-{[6-(2,6-dimethylphenyl)-5-(trifluoromethyl)pyridin-2-yl]sulfamoyl}pyridin-2-yl)-4-methylpiperidine-4-carboxylic Acid] | 879% | 1830 nM | 53.1% | 13.4 nM
13 | Cc1cccc(C)c1-c1nc(NS(=O)(=O)c2cccc(N3CC(O)(C4CC4)C3)n2)ccc1Cl [Example 211, N-(5-chloro-6-(2,6-dimethylphenyl)pyridin-2-yl)-6-(3-cyclopropyl-3-hydroxyazetidin-1-yl)pyridine-2-sulfonamide] | – | 1760 nM | 71.6% | 8.6 nM
14 | Cc1ccc(F)cc1-c1nc(NS(=O)(=O)c2cccc(N3CCN[C@H](C)C3)n2)ccc1C(F)(F)F [Example 176, (R)—N-(6-(5-fluoro-2-methylphenyl)-5-(trifluoromethyl)pyridin-2-yl)-6-(3-methylpiperazin-1-yl)pyridine-2-sulfonamide Hydrochloride] | 529% | 3420 nM | 69.8% | 224 nM
15 | Cc1ccccc1-c1nc(NS(=O)(=O)c2cccc(N[C@@H]3COCC[C@@H]3O)n2)ccc1C(F)(F)F (racemic) [Example 280, rac-6-{[(3RS,4SR)-4-hydroxyoxan-3-yl]amino}-N-[6-(2-methylphenyl)-5-(trifluoromethyl)pyridin-2-yl]pyridine-2-sulfonamide] | 844% | 1960 nM | 96.3% | 2.5 nM
16 | Cc1c(F)cccc1-c1nc(NS(=O)(=O)c2cccc(N3CCC[C@H](C(=O)O)C3)n2)ccc1C(F)(F)F [Example 360, (3S)-1-(6-{[6-(3-fluoro-2-methylphenyl)-5-(trifluoromethyl)pyridin-2-yl]sulfamoyl}pyridin-2-yl)piperidine-3-carboxylic Acid] | 546% | 2110 nM | 57.5% | 47.4 nM

Continued by falling EC50 [1], values first:

Row | Emax [1] | EC50 [1] | MTECC24 CFHBEC- Amax % (delF508-CFTR) | EC50 (delF508-CFTR) | SMILES
17 | 495% | 1710 nM | 69.5% | 34.1 nM | Cc1cccc(C)c1-c1nc(NS(=O)(=O)c2cccc(O[C@@H]3CO[C@H](CO)C3)n2)ccc1Cl [Example 288, N-[5-chloro-6-(2,6-dimethylphenyl)pyridin-2-yl]-6-{[(3S,5S)-5-(hydroxymethyl)oxolan-3-yl]oxy}pyridine-2-sulfonamide]
18 | 612% | 1510 nM | 61.0% | 13.1 nM | Cc1ccc(F)cc1-c1nc(NS(=O)(=O)c2cccc(N)n2)ccc1Cl [Example 6, 6-amino-N-(5-chloro-6-(5-fluoro-2-methylphenyl)pyridin-2-yl)pyridine-2-sulfonamide]
19 | 894% | 1450 nM | 61.2% | 3.2 nM | CCOC(=O)C1(C)CCN(c2cccc(S(=O)(=O)Nc3ccc(C(F)(F)F)c(-c4cc(F)ccc4C)n3)n2)CC1 [Example 251, ethyl 1-(6-(N-(6-(5-fluoro-2-methylphenyl)-5-(trifluoromethyl)pyridin-2-yl)sulfamoyl)pyridin-2-yl)-4-methylpiperidine-4-carboxylate]
20 | 429% | 1380 nM | 77.1% | 1.6 nM | Nc1cccc(S(=O)(=O)Nc2ccc(C(F)(F)F)c(-c3ccccc3C3CC3)n2)n1 [Example 28]
21 | 521% | 1110 nM | 84.0% | 4.75 nM | Cc1ccccc1-c1nc(NS(=O)(=O)c2cccc(N3CCC[C@@H](C(=O)O)C3)n2)ccc1C(F)(F)F [Example 332, (3R)-1-(6-{[6-(2-methylphenyl)-5-(trifluoromethyl)pyridin-2-yl]sulfamoyl}pyridin-2-yl)piperidine-3-carboxylic Acid]
22 | 285% | 1080 nM | 72.9% | 118 nM | Cc1ccccc1-c1nc(NS(=O)(=O)c2ccnc(N)c2)ccc1Cl [Example 57, 2-amino-N-(5-chloro-6-(o-tolyl)pyridin-2-yl)pyridine-4-sulfonamide]
23 | – | 1070 nM | 77.9% | 1.5 nM | Cc1ccccc1-c1nc(NS(=O)(=O)c2cccc(N[C@@H]3CCOC[C@@H]3O)n2)ccc1C(F)(F)F (racemic) [Example 275, rac-6-{[(3RS,4RS)-3-hydroxyoxan-4-yl]amino}-N-[6-(2-methylphenyl)-5-(trifluoromethyl)pyridin-2-yl]pyridine-2-sulfonamide]
